Earlier results as cited in patent publication US10500196B2 (Aequus Pharmaceuticals Inc., priority 2015, dated 2019).

Conditions: oral DICLEGIS tablet

Cc1ncc(CO)c(CO)c1O.Cl [Pyridoxine Hydrochloride, 3,4-pyridinedimethanol,5-hydroxy-6-methyl-,hydrochloride]
absorption when administered with food: delayed
bioavailability with food: reduces
